The test system of assay [1] is mTOR signaling pathway. Briefly: mTOR signaling in Hela cells treated with p18 short peptides, Western blot. It is filed as cell-based. The settings on record: for mTORC1 activation: Hela cells (FIG. 20C); for Effects: mTOR signaling pathway: Hela cells, TAT or TAT-2031 2 μM for 42 hr, ratios p-mTOR/mTOR, p-S6K1/S6K1, p-S6/S6. On the procedure:
(§1) (A) Amino acid sequence of human p18 (SEQ ID NO: 23). G2 is a myristoylation site. C3 and C4 are palmitoylation sites. K20, K31, K60, K103, K104, and K151 (red) are potential ubiquitination sites. Two short peptides around K20/31 and K151 (underlined) were respectively conjugated to the cell membrane transduction domain of HIV-1 Tat protein (TAT-2031 and TAT-151). […] Hela cells were stained with Lysotracker (red) and imaged live. Top panel, representative images of Lysotracker before and 30 min after TAT-2031 treatment are shown. Bottom panel, graph represents the distribution of lysosomes relative to the MTOC, normalized to the distance between the MTOC and the cell periphery. (C) Hela cells were incubated with TAT or TAT-2031 (2 μM) for 42 hr. Representative blots and quantification of p18, p-mTOR/mTOR, p-S6K1/S6K1, and p-S6/S6 in whole cell lysates are shown. N=2 independent experiments.
(§2) Example 9: Short peptides targeting p18 reduced mTOR activation and promoted peripheral positioning of lysosomes in HELA cells. To test whether blocking p18 ubiquitination and interruption of its interaction with other proteins could disrupt mTOR signaling and lysosome localization and function, we designed two small decoy peptides (TAT-2031 and TAT-151) targeting different domains of p18 containing lysine residues (FIG. 20A); these peptides are conjugated to the cell membrane transduction domain of HIV-1 Tat protein. […] SEQ ID NO:19 corresponds to […], residues 20-31 of p18.
A general note: Immunoblotting shows a protein as a band on a membrane.

Assay [2] addresses p18-TRPML1 interaction (Homo sapiens, UniProt Q6IAA8). The assay is described as follows: p18-TRPML1 interaction.
From the text: as §2

Assay [3] concerns Hela cell. The assay is described as follows: Migration of Hela cell. In kind it is cell-based.
In assay [4] the test system is Hela cell. The assay is described as follows: Lysosome positioning in Hela cells (Lysotracker live imaging). It is filed as cell-based. The settings on record: for lysosome distribution to the peripheral region of the cell: before and 30 min after treatment (FIG. 20B). Here is the method: as §1, §2
In assay [5] the test system is p18. The assay is described as follows: Cultured hippocampal neurons treated with MG132 or BafA, p18 immunofluorescence. The settings on record: 4 h. In kind it is cell-based, mouse.
Assay [6] deals with T1, mTOR (Mus musculus, UniProt Q9JLN9).
T1 construct: Pre-incubation of hippocampal slices with MHY1485 (2 μM) for 60 min reestablished TBS-elicited LTP; from tissue; host or cells: acute hippocampal slices from AAV p18 siRNA- or control siRNA-injected WT mice
The assay is described as follows: MHY1485 treatment of hippocampal slices from p18 siRNA-injected WT mice (LTP, Western blot). It is filed as cell-based. The settings on record: 2 μM, 60 min pre-incubation, to levels of control siRNA-injected WT mice. On the procedure: Electrophysiology. After 1.5 h incubation at 33±0.5° C. in the recording chamber, a single glass pipette filled with 2 M NaCl was used to record field EPSPs (fEPSPs) elicited by stimulation of the Schaffer collateral pathway with twisted nichrome wires (single bare wire diameter, 50 μm) placed in CA1 stratum radiatum. Stimulation pulses were generated using a Multichannel Systems Model STG4002 Stimulator (Reutlingen, Germany). Responses were recorded through a differential amplifier (DAM 50, World Precision Instruments, USA) with a […]. Before each experiment, the input/output (I/O) relation was examined by varying the intensity of the stimulation. Paired-pulse facilitation was tested at 20-300 ms interval. Long-term potentiation (LTP) was induced using theta burst stimulation (10 bursts at 5 Hz, each burst consisting of 4 pulses at 100 Hz, with a pulse duration of 0.2 ms). For LTP and paired-pulse facilitation experiments, the stimulation intensity was regulated to a current which elicited a 40% of maximal response. Data were collected and digitized by Clampex, and the slope of fEPSP was analyzed. […] All data are expressed as means±SEM, and statistical significance of differences between means was calculated with appropriate statistical tests as indicated in figure legends.

Assay [7] concerns p18. Briefly: Acute hippocampal slices treated with proteasome or lysosome inhibitor, p18 Western blot. The settings on record: 30 min. It is filed as cell-based, mouse. Here is the method: Acute Hippocampal Slice Preparation. Adult male mice (2-4-month-old) were anesthetized with gaseous isoflurane and decapitated. Brains were quickly removed and transferred to oxygenated, ice-cold cutting medium (in mM): 124 NaCl, 26 NaHCO3, 10 glucose, 3 KCl, 1.25 KH2PO4, 5 MgSO4, and 3.4 CaCl2. Hippocampal transversal slices (400 μm-thick) were prepared using a McIlwain-type tissue chopper and transferred to i) an interface recording chamber and exposed to a warm, humidified atmosphere of 95% O2/5% CO2 and continuously perfused with oxygenated and preheated (33±0.5° C.) artificial cerebrospinal fluid (aCSF) (in mM) [110 NaCl, 5 KCl, 2.5 CaCl2, 1.5 MgSO4, 1.24 KH2PO4, 10 D-glucose, 27.4 NaHCO3], perfused at 1.4 ml/min (electrophysiology); or ii) a recovery chamber with a modified aCSF medium, containing (in mM): 124 NaCl, 2.5 KCl, 2.5 CaCl2, 1.5 MgSO4, 1.25 NaH2PO4, 24 NaHCO3, 10 D-glucose, and saturated with 95% O2/5% CO2 for 1 h at 37° C. (biochemical assays).
To determine whether Ube3a-mediated regulation of p18 was proteasome- and/or lysosome-dependent, acute hippocampal slices from WT and AS mice were treated with either a proteasome inhibitor, MG132 (10 μM), or a lysosome inhibitor, the vacuolar H+-ATPase (V-ATPase) inhibitor, bafilomycin A1 (BafA, 100 nM), for 30 min.

“Also recorded” adds a separate entry of the source. Where a SMILES comes first, the peptide text is derived from it. The star is where a group is joined. Cbz = O=C(OCc1ccccc1)*

The values that follow come from patent publication US12209111B2, “Targeting P18 for mTOR-related disorders” (WESTERN UNIVERSITY OF HEALTH SCIENCES, priority 2018, dated 2025).

p18-TRPML1 interaction, sequence (Q9GZU1 whole entry partner): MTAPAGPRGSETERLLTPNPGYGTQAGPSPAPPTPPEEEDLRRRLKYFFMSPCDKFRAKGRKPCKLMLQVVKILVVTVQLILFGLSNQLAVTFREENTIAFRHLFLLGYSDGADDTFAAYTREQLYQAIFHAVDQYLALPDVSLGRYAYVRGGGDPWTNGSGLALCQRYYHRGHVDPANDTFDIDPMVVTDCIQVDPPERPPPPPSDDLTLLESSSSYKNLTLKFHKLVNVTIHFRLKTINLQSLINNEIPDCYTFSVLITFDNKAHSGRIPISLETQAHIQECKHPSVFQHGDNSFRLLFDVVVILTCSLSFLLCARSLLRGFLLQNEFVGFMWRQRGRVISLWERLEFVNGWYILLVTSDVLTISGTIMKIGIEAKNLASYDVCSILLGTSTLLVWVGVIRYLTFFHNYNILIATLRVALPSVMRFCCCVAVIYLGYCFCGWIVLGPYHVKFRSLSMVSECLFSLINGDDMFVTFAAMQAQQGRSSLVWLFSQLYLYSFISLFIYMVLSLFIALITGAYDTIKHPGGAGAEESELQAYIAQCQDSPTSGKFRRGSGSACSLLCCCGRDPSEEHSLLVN
p18-TRPML1 interaction, sequence (Q6IAA8 whole entry): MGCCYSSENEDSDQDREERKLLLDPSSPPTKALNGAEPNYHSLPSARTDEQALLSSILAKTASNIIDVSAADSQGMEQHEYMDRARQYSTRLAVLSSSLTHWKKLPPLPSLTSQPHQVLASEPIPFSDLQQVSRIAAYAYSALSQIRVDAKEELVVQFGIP

Take “TAT-2031: p18 residues 20-31 (KLLLDPSSPPTK) conjugated to HIV-1 Tat transduction domain: YGRKKRRQRRRKLLLDPSSPPTK”: the mTORC1 activation entry in assay [1] is on record as “significantly reduced”. For the same compound, in assay [2], the “Effects: p18-TRPML1 interaction” value is recorded as “Reduced the”. The “Effects: Migration of Hela cell” value in assay [3] is recorded as “Slightly reduced”. The “lysosome distribution to the peripheral region of the cell” value is reported as “increased; also recorded: shifted the distribution of lysosomes toward the cell periphery” in assay [4] and “increased” in assay [4] (listed as short decoy peptide around K20/31).
Consider `CO/C1=C\C(C)=C\[C@@H](C)[C@@H](O)[C@@H](C)C/C(C)=C/C=C/[C@H](OC)[C@@H]([C@@H](C)[C@@H](O)[C@H](C)[C@@]2(O)C[C@@H](O)[C@H](C)[C@@H](C(C)C)O2)OC1=O` [BafA, bafilomycin A1], for which, in assay [5] (cultured hippocampal neurons from both WT and AS mice, 100 nM), the p18 intensity entry was “only slightly increased”.
On to “TAT: Cell membrane transduction domain of HIV-1 Tat protein, YGRKKRRQRRR; control peptide [reference compound]”, for which the “Effects: mTOR signaling pathway” value in assay [1] was “No”. In addition, the “Effects: p18-TRPML1 interaction” value in assay [2] was “No”. For the same compound, the “Effects: Migration of Hela cell” value in assay [3] was “No”. The “Effects: Lysosome positioning in Hela cell” value in assay [4] is reported as “No”.
Take `O=[N+]([O-])c1ccc(Nc2nc(N3CCOCC3)nc(N3CCOCC3)n2)cc1` [MHY1485]: the “TBS-elicited LTP” value in assay [6] is on record as “reestablished”.
With `CC(C)C[C@@H](C=O)NC(=O)[C@H](CC(C)C)NC(=O)[C@H](CC(C)C)NC(=O)OCc1ccccc1` [MG132] (Cbz-Leu-Leu-Leu-aldehyde), the “p18 levels in AS slices” value in assay [7] (acute hippocampal slices from AS mice, MG132 10 μM) is on record as “marginally”. The “p18 levels in WT slices” value in assay [7] (acute hippocampal slices from WT mice, MG132 10 μM or BafA 100 nM) is recorded as “significantly increased”. Also, in assay [5] (cultured hippocampal neurons from WT mice, 10 μM), the p18 intensity entry is reported as “markedly increased”.
As to “TAT-151: Short p18 peptide around K151 conjugated to HIV-1 Tat transduction domain: YGRKKRRQRRRKEELVV”, in assay [1], the mTORC1 activation entry is on record as “not” and the “Effects: mTOR signaling pathway” value was “Little”. In addition, in assay [4], the “lysosome distribution to the peripheral region of the cell” value is “not”.
